Converted amounts (≈) assume the structure as drawn.
How the values were obtained:
[1] = Solubility of hydroxycinnamic acids in pure solvents (orbital shaker 72 h, HPLC); assay type: physicochemical; settings: for Increase of solubility in EGMME with respect to 101: EGMME vs 101; for solubility at 72 h: organic solvent or mixture, thermodynamic from solid
Method: (§1) Amber vials were used to protect the samples from light. To ensure reliability, all of the experiments were performed in triplicate. The samples were shaken in a biological orbital shaker at 100 rpm for 72 h at 25 °C.
Before the samples were measured, they must be sonicated to avoid the formation of dimers and ensure the uniformity of the peaks.
(§2) The column used for the quantification was a C18 Phenomenex Luna ([…] × 5 μm).
Calibration curves were generated using solutions varying in the concentrations of the three studied acids within the HPLC detection range (0–0.006 mg). These solutions were sonicated to ensure uniformity of the peaks and then injected into the HPLC. The linearity of the curves was evaluated by linear regression analysis. Details of the calibrations are gathered in the Supporting Information (Figures S27–S29).
Following this period, the solution was checked for saturation and filtered. The filtered solution was then immediately diluted for hydroxycinnamic acid quantification by HPLC.

physchem = settings: for solubility at 72 h: 25 °C, thermodynamic from solid, Solubility (mg/mL)
Method: as §1, §2

[2] = comparison solvents; cited from earlier work
[3] = pure 1,3-propylene glycol (PG), 25 °C, solvent PG (1,3-propylene glycol), 298 K, read-out: Solubility
[4] = pure ethylene glycol (EG), 25 °C, solvent EG (ethylene glycol), 298 K, read-out: Solubility
[5] = pure solvent 3F00, 25 °C, solvent 3F00, Tables S-1 to S-3, read-out: Solubility
[6] = pure solvent 3i00, 25 °C, solvent 3i00, Tables S-1 to S-3, read-out: Solubility
[7] = pure solvent 3i03i, 25 °C, solvent 3i03i, 298 K, read-out: Solubility
[8] = pure solvent 100, 25 °C, solvent 100, Tables S-1 to S-3, read-out: Solubility
[9] = pure solvent 101, 25 °C, solvent 101, Tables S-1 to S-3, read-out: Solubility
[10] = pure solvent 111, 25 °C, solvent 111, Tables S-1 to S-3, read-out: Solubility
[11] = pure solvent 111 triether, 25 °C, solvent 111 triether, 298 K, read-out: Solubility
[12] = pure solvent 200, 25 °C, solvent 200, Tables S-1 to S-3, read-out: Solubility
[13] = pure solvent 202, 25 °C, solvent 202, 298 K, read-out: Solubility
[14] = pure solvent 202, 25 °C, solvent 202, Tables S-1 to S-3, read-out: Solubility
[15] = pure solvent 300, 25 °C, solvent 300, Tables S-1 to S-3, read-out: Solubility
[16] = pure solvent 400, 25 °C, solvent 400, Tables S-1 to S-3, read-out: Solubility
[17] = pure solvent 400, 25 °C, solvent 400, Tables S-13 to S-15, read-out: Experimental solubility
[18] = pure solvent 404, 25 °C, solvent 404, Tables S-1 to S-3, read-out: Solubility
[19] = pure solvent EG, 25 °C, solvent EG, Tables S-1 to S-3, read-out: Solubility
[20] = pure solvent EGDME, 25 °C, solvent EGDME, Tables S-1 to S-3, read-out: Solubility
[21] = pure solvent EGMME, 25 °C, solvent EGMME, Tables S-1 to S-3, read-out: Solubility
[22] = pure solvent PG, 25 °C, solvent PG, Tables S-1 to S-3, read-out: Solubility

Which results are given for O=C(O)/C=C/c1ccc(O)cc1 [Coumaric acid, coumaric acid]?
Increase of solubility in EGMME with respect to 101 [1]: 45%; solubility at 72 h [1, 3]: 91.3 mg/mL (≈ 556 mM); solubility at 72 h [1, 4]: 103 mg/mL (≈ 627 mM); solubility at 72 h ([1]; pure solvent 3F00, 25 °C, solvent 3F00, 298 K, read-out: Solubility): 19.6 mg/mL (≈ 119 mM); solubility at 72 h [1, 5]: 17.2 mg/mL (≈ 105 mM); solubility at 72 h ([1]; pure solvent 3F03F, 25 °C, solvent 3F03F, 298 K, read-out: Solubility): 2 mg/mL (≈ 12.2 mM); solubility at 72 h ([1]; pure solvent 3F03F, 25 °C, solvent 3F03F, Tables S-1 to S-3, read-out: Solubility): 2.7 mg/mL (≈ 16.4 mM); solubility at 72 h [1, 6]: 112 mg/mL (≈ 685 mM); solubility at 72 h [1, 7]: 85.7 mg/mL (≈ 522 mM); solubility at 72 h [1, 8]: 141 mg/mL (≈ 861 mM); solubility at 72 h ([1]; pure solvent 100, 25 °C, solvent 100, Tables S-13 to S-15, read-out: Experimental solubility): 142 mg/mL (≈ 863 mM); solubility at 72 h ([1]; pure solvent 101, 25 °C, solvent 101, 298 K, read-out: Solubility): 176 mg/mL (≈ 1070 mM); solubility at 72 h [1, 9]: 176 mg/mL (≈ 1070 mM); solubility at 72 h ([1]; pure solvent 101, 25 °C, solvent 101, Tables S-13 to S-15, read-out: Experimental solubility): 177 mg/mL (≈ 1080 mM); solubility at 72 h [1, 10]: 110 mg/mL (≈ 668 mM); solubility at 72 h [1, 11]: 109 mg/mL (≈ 664 mM); solubility at 72 h [1, 12]: 137 mg/mL (≈ 832 mM); solubility at 72 h [1, 13]: 122 mg/mL (≈ 743 mM); solubility at 72 h [1, 14]: 120 mg/mL (≈ 731 mM); solubility at 72 h [1, 15]: 113 mg/mL (≈ 687 mM); solubility at 72 h ([1]; pure solvent 303, 25 °C, solvent 303, 298 K, read-out: Solubility): 74.6 mg/mL (≈ 454 mM); solubility at 72 h [1, 16]: 95.1 mg/mL (≈ 579 mM); solubility at 72 h [1, 17]: 93.1 mg/mL (≈ 567 mM); solubility at 72 h [1, 18]: 49.3 mg/mL (≈ 300 mM); solubility at 72 h [1, 19]: 103 mg/mL (≈ 627 mM); solubility at 72 h [1, 20]: 161 mg/mL (≈ 980 mM); solubility at 72 h [1, 21]: 256 mg/mL (≈ 1560 mM); solubility at 72 h [1, 22]: 91.1 mg/mL (≈ 555 mM); Solubility ([1]; solvent EG (ethylene glycol), 298 K): 102 mg/mL (≈ 621 mM); solubility at 72 h (physchem): 203 mg/mL (≈ 1240 mM); solubility at 72 h (physchem; water): 0.4 mg/mL (≈ 2.44 mM); Increase of solubility in the water/101 mixture compared to the solubility in water (physchem; 72 h): 500 fold

For OCC(O)CO [glycerol], which Viscosity [2] is on record?
The Viscosity was 1200 cP.

For O=C(O)/C=C/c1ccc(O)c(O)c1 [Caffeic acid], which “Increase of solubility in EGMME with respect to 101” value [1] is on record?
Its value is 21%.

What about the solubility at 72 h [1, 3] of the same compound?
The solubility at 72 h was 36.5 mg/mL (≈ 203 mM).

And the solubility at 72 h [1, 4]?
The solubility at 72 h was 55.8 mg/mL (≈ 310 mM).

And the solubility at 72 h ([1]; pure ethylene glycol dimethyl ether (EGDME), 25 °C, solvent EGDME (ethylene glycol dimethyl ether), 298 K, read-out: Solubility)?
The solubility at 72 h was 32.5 mg/mL (≈ 180 mM).

And the solubility at 72 h [1, 5]?
Its solubility at 72 h is 5.5 mg/mL (≈ 30.5 mM).

What about the solubility at 72 h [1, 6] of the same compound?
The solubility at 72 h was 45.8 mg/mL (≈ 254 mM).

What about the solubility at 72 h [1, 7] of the same compound?
The solubility at 72 h was 25.2 mg/mL (≈ 140 mM).

What about the solubility at 72 h ([1]; pure solvent 3i03i, 25 °C, solvent 3i03i, Tables S-1 to S-3, read-out: Solubility) of the same compound?
Its solubility at 72 h is 25.1 mg/mL (≈ 139 mM).

What about the solubility at 72 h [1, 8] of the same compound?
Its solubility at 72 h is 75.7 mg/mL (≈ 420 mM).

What about the solubility at 72 h [1, 9] of the same compound?
Its solubility at 72 h is 81.1 mg/mL (≈ 450 mM).

What about the solubility at 72 h [1, 10] of the same compound?
Its solubility at 72 h is 32.5 mg/mL (≈ 180 mM).

What about the solubility at 72 h ([1]; pure solvent 111, 25 °C, solvent 111, Tables S-13 to S-15, read-out: Experimental solubility) of the same compound?
Its solubility at 72 h is 32.5 mg/mL (≈ 180 mM).

What about the solubility at 72 h [1, 11] of the same compound?
The solubility at 72 h was 32.5 mg/mL (≈ 180 mM).

And the solubility at 72 h [1, 12]?
The solubility at 72 h was 61.9 mg/mL (≈ 344 mM).

And the solubility at 72 h [1, 13]?
The solubility at 72 h was 34 mg/mL (≈ 189 mM).

And the solubility at 72 h [1, 14]?
Its solubility at 72 h is 12 mg/mL (≈ 66.6 mM).

What about the solubility at 72 h [1, 15] of the same compound?
The solubility at 72 h was 44.5 mg/mL (≈ 247 mM).

What about the solubility at 72 h ([1]; pure solvent 303, 25 °C, solvent 303, Tables S-1 to S-3, read-out: Solubility) of the same compound?
The solubility at 72 h was 17.2 mg/mL (≈ 95.5 mM).

What about the solubility at 72 h [1, 16] of the same compound?
Its solubility at 72 h is 33.5 mg/mL (≈ 186 mM).

What about the solubility at 72 h [1, 17] of the same compound?
Its solubility at 72 h is 33.4 mg/mL (≈ 185 mM).

What about the solubility at 72 h [1, 18] of the same compound?
The solubility at 72 h was 11.1 mg/mL (≈ 61.6 mM).

And the solubility at 72 h [1, 19]?
The solubility at 72 h was 42 mg/mL (≈ 233 mM).

What about the solubility at 72 h [1, 20] of the same compound?
The solubility at 72 h was 32.5 mg/mL (≈ 180 mM).

And the solubility at 72 h [1, 21]?
Its solubility at 72 h is 98.9 mg/mL (≈ 549 mM).

What about the solubility at 72 h [1, 22] of the same compound?
The solubility at 72 h was 27.4 mg/mL (≈ 152 mM).

And the solubility at 72 h (physchem)?
Its solubility at 72 h is 85 mg/mL (≈ 472 mM).

What about the solubility at 72 h (physchem; water) of the same compound?
The solubility at 72 h was 0.8 mg/mL (≈ 4.44 mM).

And the “Increase in the solubility compared to pure 100” value (physchem; 72 h)?
Its value is 20%.

And the “Increase of solubility in the water/101 mixture compared to the solubility in water” value (physchem; 72 h)?
Its value is 140 fold.
